Test system: erythrocytic cells
Test: Hemolysis / survival of freeze-dried and rehydrated erythrocytic cells

Compound | hemolysis after freeze-drying and rehydration (FIG. 22 [T+αC]+5 min+Zn: α-crystallin 1.2 mg/ml loading, 5 min pre-hydration, 500 μM ZnSO4 in rehydration buffer) [%] | cell survival (α-crystallin, 5 min pre-hydration and 500 μM ZnSO4 combined) [%] | cell survival after rehydration (1.2 mg/ml α-crystallin in loading plus 0.5 mg/ml α-crystallin in rehydration buffer) | hemolysis after freeze-drying and rehydration (FIG. 22 [T+αC]+5 min: α-crystallin 1.2 mg/ml in loading buffer, pre-hydrated 37° C. 5 min) [%] | percent hemolysis after freeze-drying and direct rehydration (loaded in 800 mM trehalose, 100 mOsm ADSOL, 6.6 mM Na-phosphate and 1.2 mg/ml α-crystallin (FIG. 21)) [%]
O=S(=O)([O-])[O-].[Zn+2] [ZnSO4] | 38 | 62 |  |  | 
α-crystallin: member of the small heat shock protein family |  |  | does not result in higher cell survival | 47 | 49

From patent US20050031597A1, “Cells and improved method for preserving cells” (priority 2003, published 2005)
